# Assay results as given in patent publication US20160256535A1, “HEXAPEPTIDE AND USES THEREOF” (priority 2013, published 2016).
# Primed or numbered codes have the meaning given here. No end group written: not given here. FITC′ = not defined here
# Experiments:
# Jurkat cells = experiment: Jurkat cell penetration, immunofluorescence; format: cell-based, human; settings: 92 μM, 3 h
# Experimental: Jurkat cells (ATTC, UK) were seeded at density of 150000 cells/well in RPMI media supplemented with 1% Penstrep and 10% FBS in a humidified atmosphere containing 5% CO2 at 37°. The next day, the cells were incubated with 92 μM AVCGTG (SEQ ID NO. 1)-FITC for 3 h in multiwell 24. Subsequently, a cytospin was used to smear cells onto slides. The smears were fixed with 4% paraformaldehyde/PBS for 10 min and rinsed twice with 1×PBS containing 0.1% Triton to remove traces of fixative. Cell samples without AVCGTG (SEQ ID NO. 1)-FITC were used for the background control. After blocking solution with 5% NGS (Normal Goat Serum, VECTOR) 1×PBS+0,1% Triton X-100, was added for 30 minutes. After removing the blocking solution, cells were incubated with primary antibody hexapeptide, diluted 1:200 in blocking solution, overnight at 4° C. The following day, after washing with lx PBS and 0.1% Triton X-100 for 10 minutes, secondary antibody (ALEXA FLUO 488A, SANTACRUZ) diluted 1:400 with 1×PBS and 0.1% Triton X-100 for 2 h was added. The excess of antibody was removed with 3 washes with 1×PBS.
# Nuclei were stained with DAPI (1 μg/mL). The slides were mounted and stored in the dark at 4° C. and then observed by fluorescence microscope ZEISS HB050 by using the software Axion Vision Re1.4.8.
# white blood cells = experiment: White blood cell penetration, immunocytochemistry at light microscopy; format: cell-based, human; settings: healthy subject
# Experimental: (§1) Lymphocytes were incubated for five hours in the presence of fluorescinated Hexapeptide 92 μM. A cytospin was used to smear cells onto slides. The smears were fixed in Zamboni solution (4% paraformaldehyde, 15% picric acid) for 60 minutes and then washed with 1×PBS and incubated for five minutes with 3% hydrogen peroxide to quench endogenous peroxidase activity. Immunostaining was performed using the DAKO LSA+System HRP kit. Rabbit anti-rMnSOD-Lp (1:200), was incubated on slides for 30 minutes, followed by incubation with the biotinylated secondary antibody for 30 minutes and peroxidase-labeled streptavidin for 30 minutes. To complete the reaction, a substrate-chromogen solution was used. The smears were counterstained with hematoxylin.
# sperm = experiment: Sperm fluorescence microscopy with propidium iodide; format: cell-based, bovine; settings: 1 mg/ml, 37° C., 1 hour; sperm without red (propidium iodide) fluorescence
# Experimental: Three fresh ejaculate from bovine, obtained from two different bulls, were mixed and diluted in Tris solution with a concentration of 100×10^6 sperm/ml, incubated at 37° C. for 1 hour in the presence of 1 mg/ml of FITC-rMnSOD-LP (hexapeptide) and 1 mg/ml of propidium iodide.
# The peptide also enters in the sperm with a non-intact membrane. These sperm must not to be taken into consideration in the penetration study because if the membrane is broken, its permeability is not selective. The hexapeptide enters even in the dead, but for normal diffusion, not for selective activity of intact membranes.
# Human Normal Lymphocytes = experiment: Lymphocyte penetration, immunocytochemistry / immunofluorescence; format: cell-based
# Experimental: Human Normal Lymphocytes cells were collected from healthy donors and purified using Ficoll Hystopaque density gradient centrifugation. The cells were cultured at a density of 1×10^6 cells/mL in RPMI media supplemented with 1% Penstrep and 10% FBS in a humidified atmosphere containing 5% CO2 at 37° C.
# as §1, with “A” for “Lymphocytes were incubated for five hours in the presence of fluorescinated Hexapeptide 92 μM. A”
# MCF-7 cells = experiment: Internalization of fluoresceinated hexapeptide by confocal and fluorescence microscopy; format: cell-based, human; settings: for internalization by confocal microscopy: 0.125 μM, 3 hr
# Experimental: The confocal analysis was performed by placing the cells of human breast cancer (MCF-7, ATCC HTB-22) on suitable slides (MatTek, Ashland Corporation MA, U.S.). The hexapaptide to the concentration of 0.125 μM was then added to the cells.
# The protocol used for the internalization of the PEP-6 FAM includes two separate experiments. A first experiment was done using PEP 6-FAM to 92 μM for 3 hr and the internalization was assessed. To these cells, already treated with PEP6-FAM, primary Ab anti-PEP 24 1:20 overnight at 4° C. was added and, as secondary antibody goat anti rabbit fluorescent CF 488A; and to 1 plate, already treated with PEP6 FAM, it was added the primary antibody anti rMnSOD 1:20 overnight and the secondary CF555 rodamynated donkey anti sheep. For 45 min-1 hr.
# In the second experiment, the PEP 6-FAM was used at 92 μM to 1 hr and 3 hr with fixation in ethanol and paraformaldehyde, and for both times it was assessed the penetration alone, without the addition of the antibody and with the addition of primary antibody anti rMnSOD with three different dilutions (1500-1:1000-1:2000) in 5% NGS (Normal Goat Serum) in PBS +0.1% Triton overnight at 4° C. and, the secondary antibody anti rhodium CF 555 sheep 1:400 for 45′-1 hr. The nuclei were subsequently stained with 10 μg for ml^−1 DAPI (4′,6-diamidin-2-phenylindole, LIFE™ Thencologies).
# cells = experiment: Ability of hexapeptide conjugated to fluorescein to enter cells (immunocytochemistry); format: cell-based; settings: immunocytochemistry examination
# Source text: The test results are positive and confirms the previous data.
substance,measurement,setting,value
AVCGTG (SEQ ID NO. 1)-FITC (AVCGTG-{FITC′}),penetration into Jurkat cells,Jurkat cells,penetrates in Jurkat cells
same,penetration into white blood cells,white blood cells,penetrates in white blood cells
same,viable sperm showing green fluorescence in the mid piece of the tail,sperm,100%
same,internalization in lymphocytes,Human Normal Lymphocytes; 3 hour incubation,most cells internalized
same,percentage of labeled cells,"Human Normal Lymphocytes; lymphocytes, 92 μM, 3 hours",95%
same,penetration by fluorescence optical microscopy,MCF-7 cells,penetrates into the MCF-7 breast cancer cells
same,internalization by confocal microscopy,MCF-7 cells; listed as FITC-PEP,internalized into the cytoplasm
same,internalization by confocal microscopy,MCF-7 cells; listed as FTC-peptide,internalized in the cytoplasm
same,penetration into the cells,cells,penetrates into the cells
